# How the values were obtained:
# Format in all cases: functional
# SR = assay: Cytotoxicity against human SR cells after 48 hrs by sulforhodamine B assay
# HOP-62 = assay: Cytotoxicity against human HOP62 cells after 48 hrs by sulforhodamine B assay; settings: HOP-62, 48 h
# HOP-92 = assay: Cytotoxicity against human HOP92 cells after 48 hrs by sulforhodamine B assay; settings: HOP-92, 48 h
# NCI-H226 = assay: Cytotoxicity against human NCI-H226 cells after 48 hrs by sulforhodamine B assay; settings: NCI-H226, 48 h
# HCT-116 = assay: Cytotoxicity against human HCT116 cells after 48 hrs by sulforhodamine B assay; settings: HCT-116, 48 h
# SW-620 = assay: Cytotoxicity against human SW620 cells after 48 hrs by sulforhodamine B assay; settings: SW-620, 48 h
# SNB-75 = assay: Cytotoxicity against human SNB75 cells after 48 hrs by sulforhodamine B assay; settings: SNB-75, 48 h
# Malme-3M = assay: Cytotoxicity against human MALME-3M cells after 48 hrs by sulforhodamine B assay
# MDA-MB-435 = assay: Cytotoxicity against human MDA-MB-435 cells after 48 hrs by sulforhodamine B assay; settings: MDA-MB-435, 48 h
# [1] = Cytotoxicity against human UACC62 cells after 48 hrs by sulforhodamine B assay; settings: UACC-62, 48 h
# IGROV-1 = assay: Cytotoxicity against human IGROV1 cells after 48 hrs by sulforhodamine B assay; settings: IGROV-1, 48 h
# [2] = Cytotoxicity against human OVCAR3 cells after 48 hrs by sulforhodamine B assay; settings: OVCAR-3, 48 h
# [3] = Cytotoxicity against human OVCAR4 cells after 48 hrs by sulforhodamine B assay; settings: OVCAR-4, 48 h
# [4] = Cytotoxicity against human OVCAR8 cells after 48 hrs by sulforhodamine B assay; settings: OVCAR-8, 48 h
# SK-OV-3 = assay: Cytotoxicity against human SKOV3 cells after 48 hrs by sulforhodamine B assay; settings: SK-OV-3, 48 h
# A498 = assay: Cytotoxicity against human A498 cells after 48 hrs by sulforhodamine B assay; settings: A498, 48 h
# ACHN = assay: Cytotoxicity against human ACHN cells after 48 hrs by sulforhodamine B assay
# RXF 393 = assay: Cytotoxicity against human RXF393 cells after 48 hrs by sulforhodamine B assay; settings: RXF 393, 48 h
# SN12C = assay: Cytotoxicity against human SN12C cells after 48 hrs by sulforhodamine B assay
# [5] = Cytotoxicity against human UO31 cells after 48 hrs by sulforhodamine B assay; settings: UO-31, 48 h
# MCF7 = assay: Cytotoxicity against human MCF7 cells after 48 hrs by sulforhodamine B assay; settings: MCF7, 48 h
# [6] = read-out: LC50 (the source's name)
# [7] = read-out: pLC50 (the source's name) (converted)
smiles,measurement,setting,value
O=C(Nc1nonc1-c1ccc(Cl)cc1)c1ccc(C(F)(F)F)cc1,GI50,SR; read-out: GI50,2.85 µM
same,CC50,SR; [6],> 100 µM
same,TGI,SR; read-out: TGI,10.6 µM
same,GI50,SR; read-out: pGI50 (converted),2.82 µM
same,CC50,SR; [7],> 100 µM
same,TGI,SR; read-out: pTGI (converted),10.7 µM
same,GI50,HOP-62; read-out: GI50,2.93 µM
same,CC50,HOP-62; [6],> 100 µM
same,TGI,HOP-62; read-out: TGI,8.74 µM
same,GI50,HOP-62; read-out: pGI50 (converted),2.95 µM
same,CC50,HOP-62; [7],> 100 µM
same,TGI,HOP-62; read-out: pTGI (converted),8.71 µM
same,GI50,HOP-92; read-out: GI50,0.668 µM
same,CC50,HOP-92; [6],> 100 µM
same,TGI,HOP-92; read-out: TGI,3.96 µM
same,GI50,HOP-92; read-out: pGI50 (converted),0.661 µM
same,CC50,HOP-92; [7],> 100 µM
same,TGI,HOP-92; read-out: pTGI (converted),3.98 µM
same,GI50,NCI-H226; read-out: GI50,2.48 µM
same,CC50,NCI-H226; [6],> 100 µM
same,TGI,NCI-H226; read-out: TGI,7.85 µM
same,GI50,NCI-H226; read-out: pGI50 (converted),2.45 µM
same,CC50,NCI-H226; [7],> 100 µM
same,TGI,NCI-H226; read-out: pTGI (converted),7.76 µM
same,GI50,HCT-116; read-out: GI50,2.17 µM
same,CC50,HCT-116; [6],> 100 µM
same,GI50,HCT-116; read-out: pGI50 (converted),2.19 µM
same,CC50,HCT-116; [7],> 100 µM
same,GI50,SW-620; read-out: GI50,2.82 µM
same,CC50,SW-620; [6],> 100 µM
same,TGI,SW-620; read-out: TGI,> 100 µM
same,GI50,SW-620; read-out: pGI50 (converted),2.82 µM
same,CC50,SW-620; [7],> 100 µM
same,TGI,SW-620; read-out: pTGI,> 100 µM
same,GI50,SNB-75; read-out: GI50,1.79 µM
same,CC50,SNB-75; [6],> 100 µM
same,TGI,SNB-75; read-out: TGI,7.54 µM
same,GI50,SNB-75; read-out: pGI50 (converted),1.78 µM
same,CC50,SNB-75; [7],> 100 µM
same,TGI,SNB-75; read-out: pTGI (converted),7.59 µM
same,GI50,Malme-3M; read-out: GI50,1.52 µM
same,LC50,Malme-3M; read-out: LC50,> 100 µM
same,TGI,Malme-3M; read-out: TGI,21.8 µM
same,GI50,Malme-3M; read-out: pGI50 (converted),1.51 µM
same,LC50,Malme-3M; read-out: pLC50 (converted),> 100 µM
same,TGI,Malme-3M; read-out: pTGI (converted),21.9 µM
same,GI50,MDA-MB-435; read-out: GI50,2.15 µM
same,LC50,MDA-MB-435; read-out: LC50,> 100 µM
same,TGI,MDA-MB-435; read-out: TGI,> 100 µM
same,GI50,MDA-MB-435; read-out: pGI50 (converted),2.14 µM
same,LC50,MDA-MB-435; read-out: pLC50 (converted),> 100 µM
same,TGI,MDA-MB-435; read-out: pTGI,> 100 µM
same,GI50,[1]; read-out: GI50,2.11 µM
same,CC50,[1]; [6],> 100 µM
same,TGI,[1]; read-out: TGI,6.83 µM
same,GI50,[1]; read-out: pGI50 (converted),2.09 µM
same,CC50,[1]; [7],> 100 µM
same,TGI,[1]; read-out: pTGI (converted),6.76 µM
same,GI50,IGROV-1; read-out: GI50,4.72 µM
same,LC50,IGROV-1; read-out: LC50,> 100 µM
same,TGI,IGROV-1; read-out: TGI,> 100 µM
same,GI50,IGROV-1; read-out: pGI50 (converted),4.68 µM
same,LC50,IGROV-1; read-out: pLC50 (converted),> 100 µM
same,TGI,IGROV-1; read-out: pTGI,> 100 µM
same,GI50,[2]; read-out: GI50,2.18 µM
same,CC50,[2]; [6],> 100 µM
same,TGI,[2]; read-out: TGI,7.9 µM
same,GI50,[2]; read-out: pGI50 (converted),2.19 µM
same,CC50,[2]; [7],> 100 µM
same,TGI,[2]; read-out: pTGI (converted),7.94 µM
same,GI50,[3]; read-out: GI50,1.83 µM
same,TGI,[3]; read-out: TGI,4.21 µM
same,GI50,[3]; read-out: pGI50 (converted),1.82 µM
same,TGI,[3]; read-out: pTGI (converted),4.17 µM
same,GI50,[4]; read-out: GI50,2.87 µM
same,CC50,[4]; [6],> 100 µM
same,TGI,[4]; read-out: TGI,> 100 µM
same,GI50,[4]; read-out: pGI50 (converted),2.88 µM
same,CC50,[4]; [7],> 100 µM
same,TGI,[4]; read-out: pTGI,> 100 µM
same,GI50,SK-OV-3; read-out: GI50,2.92 µM
same,CC50,SK-OV-3; [6],> 100 µM
same,TGI,SK-OV-3; read-out: TGI,7.6 µM
same,GI50,SK-OV-3; read-out: pGI50 (converted),2.88 µM
same,CC50,SK-OV-3; [7],> 100 µM
same,TGI,SK-OV-3; read-out: pTGI (converted),7.59 µM
same,GI50,A498; read-out: GI50,1.73 µM
same,LC50,A498; read-out: LC50,> 100 µM
same,TGI,A498; read-out: TGI,5.46 µM
same,GI50,A498; read-out: pGI50 (converted),1.74 µM
same,LC50,A498; read-out: pLC50 (converted),> 100 µM
same,TGI,A498; read-out: pTGI (converted),5.5 µM
same,GI50,ACHN; read-out: GI50,3.1 µM
same,CC50,ACHN; [6],> 100 µM
same,TGI,ACHN; read-out: TGI,8.74 µM
same,GI50,ACHN; read-out: pGI50 (converted),3.09 µM
same,CC50,ACHN; [7],> 100 µM
same,TGI,ACHN; read-out: pTGI (converted),8.71 µM
same,GI50,RXF 393; read-out: GI50,2.21 µM
same,CC50,RXF 393; [6],> 100 µM
same,TGI,RXF 393; read-out: TGI,6.07 µM
same,GI50,RXF 393; read-out: pGI50 (converted),2.24 µM
same,CC50,RXF 393; [7],> 100 µM
same,TGI,RXF 393; read-out: pTGI (converted),6.03 µM
same,GI50,SN12C; read-out: GI50,2.87 µM
same,CC50,SN12C; [6],> 100 µM
same,TGI,SN12C; read-out: TGI,> 100 µM
same,GI50,SN12C; read-out: pGI50 (converted),2.88 µM
same,CC50,SN12C; [7],> 100 µM
same,TGI,SN12C; read-out: pTGI,> 100 µM
same,GI50,[5]; read-out: GI50,2.37 µM
same,CC50,[5]; [6],> 100 µM
same,TGI,[5]; read-out: TGI,> 100 µM
same,GI50,[5]; read-out: pGI50 (converted),2.34 µM
same,CC50,[5]; [7],> 100 µM
same,TGI,[5]; read-out: pTGI,> 100 µM
same,GI50,MCF7; read-out: GI50,2.84 µM
same,CC50,MCF7; [6],> 100 µM
same,TGI,MCF7; read-out: TGI,8.15 µM
same,GI50,MCF7; read-out: pGI50 (converted),2.82 µM
same,CC50,MCF7; [7],> 100 µM
same,TGI,MCF7; read-out: pTGI (converted),8.13 µM
